Test system: Genes belonging to other category
Assay: DNA chip mRNA expression in yeast, genes belonging to other category (Table 9)
Type: cell-based, Saccharomyces cerevisiae S288C
Protocol: Yeast (Saccharomyces cerevisiae S288C (α SUC2mal mel gap2 CUP1)) were incubated at 25° C. on YPD medium (yeast extract 1%, polypepton 2%, glucose 2%). One of toxic chemical substances was added to the cells at logarithmic growth phase, and the cells were further incubated for two hours. Cells were cultured without any chemical substance in the same condition, and were used as control. Concentrations of the chemical substances were defined to inhibit the growth of the yeast but not lead to death.
After completion of the incubation, the culture was centrifuged to collect the cells. To the cells, sodium acetate buffer (50 mM sodium acetate, 10 mM EDTA, 1% SDS) was added, and the mixture was shaken at 65° C. for five minutes, followed by returning to room temperature, and obtaining the supernatant, of which the procedures were repeated two times. To the supernatant, ½ amount of a solution of phenol/chloroform was added, and the mixture was centrifuged to give a supernatant, which was added with an equal amount of chloroform, and the mixture was centrifuged to give a supernatant. To the supernatant, an equal amount of isopropanol containing 0.3 M sodium acetate was added, and the mixture was allowed to stand at room temperature for 30 minutes, after which the mixture was centrifuged to give a sediment of the whole RNAs. Seventy % ethanol was added to the sediment, and the mixture was again centrifuged to give a sediment, which was then dried and dissolved in water. mRNA was isolated from the whole RNAs as followings. In view of the fact that a poly A chain is attached to the 3′ terminus of mRNA, a polynucleotide having a poly T structure which was immobilized on the surface of latex beads was used to trap the mRNA, and then the mRNA was washed and eluted with spine column (Oligotex-dT30<Super>mRNA Purification Kit, Takara). Reverse transcription of the mRNA was conducted with a reverse transcriptase (Super Script II Reverse Transcriptase; catalogue No. 18064-014, GibcoBRL) using fluorescence-labeled nucleotides to give cDNAs that were introduced with Cy3-dUTP or Cy5-dUTP during the reverse transcription.
The labeled cDNAs were dissolved in TE buffer (10mM Tris-HCl/1 mM EDTA, pH8.0), and the solution was dropped on the DNA chip containing the whole genes of yeast (DNA Chip Research Inc. Japan) so that the cDNAs were hybridized on the DNA chip at 65° C. for over 12 hours. The fluoresces intensity of the DNA chip was read with a scanner, and the ratio relative to the fluorescence intensity resulting from the absence of chemical substance was estimated as the following, which is shown in Tables 1 to 9: […]

O=[N+]([O-])c1cc[n+]([O-])c2ccccc12 [(5), 4-nitroquinolin-N-oxide]
The level of expressed mRNA in the presence of chemical substance/The level of expressed mRNA in the absence of chemical substance (yeast gene YHR169W): 1.1
The level of expressed mRNA in the presence of chemical substance/The level of expressed mRNA in the absence of chemical substance (yeast gene YHR185C): 1.4
The level of expressed mRNA in the presence of chemical substance/The level of expressed mRNA in the absence of chemical substance (yeast gene YHR195W): 1.5
The level of expressed mRNA in the presence of chemical substance/The level of expressed mRNA in the absence of chemical substance (yeast gene YIL010W): 1.2
The level of expressed mRNA in the presence of chemical substance/The level of expressed mRNA in the absence of chemical substance (yeast gene YIL076W): 1.8
The level of expressed mRNA in the presence of chemical substance/The level of expressed mRNA in the absence of chemical substance (yeast gene YIL123W): 0.6
The level of expressed mRNA in the presence of chemical substance/The level of expressed mRNA in the absence of chemical substance (yeast gene YIL140W): 0.8
The level of expressed mRNA in the presence of chemical substance/The level of expressed mRNA in the absence of chemical substance (yeast gene YJL035C): 1.4
The level of expressed mRNA in the presence of chemical substance/The level of expressed mRNA in the absence of chemical substance (yeast gene YJL053W): 1.1
The level of expressed mRNA in the presence of chemical substance/The level of expressed mRNA in the absence of chemical substance (yeast gene YJL073W): 1.2
The level of expressed mRNA in the presence of chemical substance/The level of expressed mRNA in the absence of chemical substance (yeast gene YJL089W): 1.1
The level of expressed mRNA in the presence of chemical substance/The level of expressed mRNA in the absence of chemical substance (yeast gene YJL116C): 1.3
The level of expressed mRNA in the presence of chemical substance/The level of expressed mRNA in the absence of chemical substance (yeast gene YJL164C): 1.1
The level of expressed mRNA in the presence of chemical substance/The level of expressed mRNA in the absence of chemical substance (yeast gene YJL210W): 0.6
The level of expressed mRNA in the presence of chemical substance/The level of expressed mRNA in the absence of chemical substance (yeast gene YJR004C): 1.1
The level of expressed mRNA in the presence of chemical substance/The level of expressed mRNA in the absence of chemical substance (yeast gene YJR086W): 1.3
The level of expressed mRNA in the presence of chemical substance/The level of expressed mRNA in the absence of chemical substance (yeast gene YJR117W): 1.2
The level of expressed mRNA in the presence of chemical substance/The level of expressed mRNA in the absence of chemical substance (yeast gene YKL007W): 1.0
The level of expressed mRNA in the presence of chemical substance/The level of expressed mRNA in the absence of chemical substance (yeast gene YKL008C): 0.9
The level of expressed mRNA in the presence of chemical substance/The level of expressed mRNA in the absence of chemical substance (yeast gene YKL013C): 1.9
The level of expressed mRNA in the presence of chemical substance/The level of expressed mRNA in the absence of chemical substance (yeast gene YKL039W): 0.7
The level of expressed mRNA in the presence of chemical substance/The level of expressed mRNA in the absence of chemical substance (yeast gene YKL041W): 1.3
The level of expressed mRNA in the presence of chemical substance/The level of expressed mRNA in the absence of chemical substance (yeast gene YKL096W): 0.6
The level of expressed mRNA in the presence of chemical substance/The level of expressed mRNA in the absence of chemical substance (yeast gene YKL117W): 1.8
The level of expressed mRNA in the presence of chemical substance/The level of expressed mRNA in the absence of chemical substance (yeast gene YKL165C): 0.9
The level of expressed mRNA in the presence of chemical substance/The level of expressed mRNA in the absence of chemical substance (yeast gene YKL193C): 1.1
The level of expressed mRNA in the presence of chemical substance/The level of expressed mRNA in the absence of chemical substance (yeast gene YKR076W): 1.0
The level of expressed mRNA in the presence of chemical substance/The level of expressed mRNA in the absence of chemical substance (yeast gene YLR120C): 1.1
The level of expressed mRNA in the presence of chemical substance/The level of expressed mRNA in the absence of chemical substance (yeast gene YLR136C): 1.6
The level of expressed mRNA in the presence of chemical substance/The level of expressed mRNA in the absence of chemical substance (yeast gene YLR178C): 1.0
The level of expressed mRNA in the presence of chemical substance/The level of expressed mRNA in the absence of chemical substance (yeast gene YLR250W): 1.4
The level of expressed mRNA in the presence of chemical substance/The level of expressed mRNA in the absence of chemical substance (yeast gene YLR327C): 1.3
The level of expressed mRNA in the presence of chemical substance/The level of expressed mRNA in the absence of chemical substance (yeast gene YLR356W): 1.1
The level of expressed mRNA in the presence of chemical substance/The level of expressed mRNA in the absence of chemical substance (yeast gene YLR362W): 1.5
The level of expressed mRNA in the presence of chemical substance/The level of expressed mRNA in the absence of chemical substance (yeast gene YLR391W): 1.2
The level of expressed mRNA in the presence of chemical substance/The level of expressed mRNA in the absence of chemical substance (yeast gene YLR429W): 1.4
The level of expressed mRNA in the presence of chemical substance/The level of expressed mRNA in the absence of chemical substance (yeast gene YMR004W): 1.0
The level of expressed mRNA in the presence of chemical substance/The level of expressed mRNA in the absence of chemical substance (yeast gene YMR094W): 0.9
The level of expressed mRNA in the presence of chemical substance/The level of expressed mRNA in the absence of chemical substance (yeast gene YMR104C): 0.7
The level of expressed mRNA in the presence of chemical substance/The level of expressed mRNA in the absence of chemical substance (yeast gene YMR219W): 1.6
The level of expressed mRNA in the presence of chemical substance/The level of expressed mRNA in the absence of chemical substance (yeast gene YMR226C): 0.9
The level of expressed mRNA in the presence of chemical substance/The level of expressed mRNA in the absence of chemical substance (yeast gene YMR238W): 1.5
The level of expressed mRNA in the presence of chemical substance/The level of expressed mRNA in the absence of chemical substance (yeast gene YMR275C): 0.7
The level of expressed mRNA in the presence of chemical substance/The level of expressed mRNA in the absence of chemical substance (yeast gene YMR276W): 1.3
The level of expressed mRNA in the presence of chemical substance/The level of expressed mRNA in the absence of chemical substance (yeast gene YMR297W): 0.6
The level of expressed mRNA in the presence of chemical substance/The level of expressed mRNA in the absence of chemical substance (yeast gene YNL006W): 0.9
The level of expressed mRNA in the presence of chemical substance/The level of expressed mRNA in the absence of chemical substance (yeast gene YNL007C): 1.2
The level of expressed mRNA in the presence of chemical substance/The level of expressed mRNA in the absence of chemical substance (yeast gene YNL093W): 1.2
The level of expressed mRNA in the presence of chemical substance/The level of expressed mRNA in the absence of chemical substance (yeast gene YNL333W): 1.5
The level of expressed mRNA in the presence of chemical substance/The level of expressed mRNA in the absence of chemical substance (yeast gene YNR010W): 1.8
The level of expressed mRNA in the presence of chemical substance/The level of expressed mRNA in the absence of chemical substance (yeast gene YNR069C): 1.4
The level of expressed mRNA in the presence of chemical substance/The level of expressed mRNA in the absence of chemical substance (yeast gene YOL013C): 0.7
The level of expressed mRNA in the presence of chemical substance/The level of expressed mRNA in the absence of chemical substance (yeast gene YOL109W): 1.0
The level of expressed mRNA in the presence of chemical substance/The level of expressed mRNA in the absence of chemical substance (yeast gene YOL164W): 1.6
The level of expressed mRNA in the presence of chemical substance/The level of expressed mRNA in the absence of chemical substance (yeast gene YOR036W): 1.1
The level of expressed mRNA in the presence of chemical substance/The level of expressed mRNA in the absence of chemical substance (yeast gene YOR117W): 1.2
The level of expressed mRNA in the presence of chemical substance/The level of expressed mRNA in the absence of chemical substance (yeast gene YOR124C): 1.1
The level of expressed mRNA in the presence of chemical substance/The level of expressed mRNA in the absence of chemical substance (yeast gene YOR132W): 1.1
The level of expressed mRNA in the presence of chemical substance/The level of expressed mRNA in the absence of chemical substance (yeast gene YOR157C): 0.7
The level of expressed mRNA in the presence of chemical substance/The level of expressed mRNA in the absence of chemical substance (yeast gene YOR181W): 0.7
The level of expressed mRNA in the presence of chemical substance/The level of expressed mRNA in the absence of chemical substance (yeast gene YOR185C): 1.2
The level of expressed mRNA in the presence of chemical substance/The level of expressed mRNA in the absence of chemical substance (yeast gene YOR198C): 0.8
The level of expressed mRNA in the presence of chemical substance/The level of expressed mRNA in the absence of chemical substance (yeast gene YOR259C): 2.0
The level of expressed mRNA in the presence of chemical substance/The level of expressed mRNA in the absence of chemical substance (yeast gene YOR261C): 1.5
The level of expressed mRNA in the presence of chemical substance/The level of expressed mRNA in the absence of chemical substance (yeast gene YOR288C): 1.1
The level of expressed mRNA in the presence of chemical substance/The level of expressed mRNA in the absence of chemical substance (yeast gene YOR327C): 1.0
The level of expressed mRNA in the presence of chemical substance/The level of expressed mRNA in the absence of chemical substance (yeast gene YOR355W): 1.0
The level of expressed mRNA in the presence of chemical substance/The level of expressed mRNA in the absence of chemical substance (yeast gene YOR383C): 0.9
The level of expressed mRNA in the presence of chemical substance/The level of expressed mRNA in the absence of chemical substance (yeast gene YPL010W): 1.4
The level of expressed mRNA in the presence of chemical substance/The level of expressed mRNA in the absence of chemical substance (yeast gene YPL089C): 1.4
The level of expressed mRNA in the presence of chemical substance/The level of expressed mRNA in the absence of chemical substance (yeast gene YPL109C): 1.2
The level of expressed mRNA in the presence of chemical substance/The level of expressed mRNA in the absence of chemical substance (yeast gene YPL149W): 0.8
The level of expressed mRNA in the presence of chemical substance/The level of expressed mRNA in the absence of chemical substance (yeast gene YPL154C): 1.2
The level of expressed mRNA in the presence of chemical substance/The level of expressed mRNA in the absence of chemical substance (yeast gene YPR080W): 1.4
The level of expressed mRNA in the presence of chemical substance/The level of expressed mRNA in the absence of chemical substance (yeast gene YPR103W): 1.7
The level of expressed mRNA in the presence of chemical substance/The level of expressed mRNA in the absence of chemical substance (yeast gene YPR108W): 1.3
